Measured values reported in the RepoRT retention time repository.

Test: RP, Waters ACQUITY Premier BEH C18, 100 × 2.1 mm, 1.7 µm, 40 °C, 0.3 to 0.4 mL/min, estimated dead time 0.73 min; A: water + 0.1% formic acid; B: acetonitrile + 0.1% formic acid; gradient (min/%B) 0/0.5 0.1/0.5 10/80 10.1/99.5 12/0.5 12.1/0.5 14.5/0.5
Conditions: stereoisomer not certain

CC1OC(OC2C(O)C(OCCc3ccc(O)c(O)c3)OC(CO)C2OC(=O)C=Cc2ccc(O)c(O)c2)C(O)C(O)C1O (stereo unspecified) [ACTEOSIDE] and CC=C1C(OC2OC(CO)C(O)C(O)C2O)OC=C(C(=O)OC)C1CC(=O)OCCc1ccc(O)c(O)c1 (stereo unspecified) [OLEUROPEIN] are within 1.5-fold of each other in LC retention time: 4.38 min for the first, 5.05 min for the second.

Compared with OCC1OC(OCC2OC(OC3(CO)OC(CO)C(O)C3O)C(O)C(O)C2O)C(O)C(O)C1O (stereo unspecified) [RAFFINOSE], OCC1OC(Oc2c[nH]c3ccccc23)C(O)C(O)C1O (stereo unspecified) is 4.6-fold higher in LC retention time: 0.962 min for the first, 4.43 min for the second.

Going from NC(Cc1c[nH]c2ccc(O)cc12)C(=O)O (stereo unspecified) [5-HYDROXYTRYPTOPHAN] to N[C@@H](Cc1ccc(O)c(O)c1)C(=O)O [L-DOPA], the LC retention time falls from 3.46 min to 1.7 min (2-fold).

Compared with O=C(O)CC(O)C(=O)O (stereo unspecified) [MALATE], CC(CC(=O)O)C(=O)O (stereo unspecified) [METHYLSUCCINIC ACID] is 3.4-fold higher in LC retention time: 1.11 min for the first, 3.75 min for the second.

Compared with Nc1nc2c(ncn2C2CC(O)C(CO)O2)c(=O)[nH]1 (stereo unspecified) [DEOXYGUANOSINE], Nc1nc2c(ncn2C2CC(O)C(COP(=O)(O)O)O2)c(=O)[nH]1 (stereo unspecified) [DEOXYGUANOSINE-MONOPHOSPHATE] is 2.3-fold lower in LC retention time: 3.39 min for the first, 1.47 min for the second.

O=Cc1ccc(O)cc1 [4-HYDROXYBENZALDEHYDE] and Oc1ccc(C=Cc2cc(O)cc(O)c2)cc1 [RESVERATROL] are within 1.5-fold of each other in LC retention time: 4.88 min for the first, 5.3 min for the second.

COc1ccc(-c2cc(=O)c3c(O)cc(O)cc3o2)cc1O [DIOSMETIN] and O=c1cc(-c2ccc(O)c(O)c2)oc2cc(O)cc(O)c12 [LUTEOLIN] are within 1.5-fold of each other in LC retention time: 6.12 min for the first, 5.54 min for the second.

First: O=C(O)CCCCCCCC(=O)O [AZELATE]
Second: O=C(O)CCCC(=O)O [GLUTARATE]
The LC retention time of the first is 1.6-fold higher: 5.52 min for the first, 3.5 min for the second.

COc1ccc(CC(=O)O)cc1OC [HOMOVERATRIC ACID] and COc1cc(CC2C(=O)OCC2Cc2ccc(OC)c(OC)c2)ccc1O (stereo unspecified) [ARCTIGENIN] are within 1.5-fold of each other in LC retention time: 5.34 min for the first, 6.63 min for the second.

Compared with Cc1cn(C2OC(CO)C(O)C2O)c(=O)nc1N (stereo unspecified) [5-METHYLCYTIDINE], NCCOP(=O)(O)OP(=O)(O)OCC1OC(n2ccc(N)nc2=O)C(O)C1O (stereo unspecified) [CDP-ETHANOLAMINE] is 2.7-fold lower in LC retention time: 2.36 min for the first, 0.882 min for the second.

O=C(O)CNC(=O)c1ccccc1O [SALICYLURIC ACID] and O=C(O)CCc1ccccc1O [3-(2-HYDROXYPHENYL)PROPANOATE] are within 1.5-fold of each other in LC retention time: 4.56 min for the first, 5.47 min for the second.

Cc1cn(C2CC(O)C(COP(=O)(O)O)O2)c(=O)[nH]c1=O (stereo unspecified) [THYMIDINE-MONOPHOSPHATE] and Cn1c(=O)[nH]c2[nH]c(=O)n(C)c2c1=O [1,7-DIMETHYLURIC ACID] are within 1.5-fold of each other in LC retention time: 2.73 min for the first, 2.39 min for the second.

Going from Nc1nc2[nH]c(=O)cnc2c(=O)[nH]1 [ISOXANTHOPTERIN] to Cn1c(=O)c2c([nH]c(=O)n2C)n(C)c1=O [1,3,7-TRIMETHYLURIC ACID], the LC retention time rises from 1.02 min to 3.23 min (3.2-fold).

CC(O)CC(=O)O (stereo unspecified) [3-HYDROXYBUTANOATE] and CC(CC(=O)O)CC(=O)O [METHYGLUTARATE] are within 1.5-fold of each other in LC retention time: 4.45 min for the first, 4.05 min for the second.

N[C@@H](Cc1cc(I)c(Oc2ccc(O)cc2)c(I)c1)C(=O)O [3,5-DIIODO-L-THYRONINE] and N[C@@H](Cc1ccc(O)c([N+](=O)[O-])c1)C(=O)O [3-NITRO-L-TYROSINE] are within 1.5-fold of each other in LC retention time: 5.64 min for the first, 3.8 min for the second.

Compared with CC(C)(N)C(=O)O [2-AMINOISOBUTYRATE], CC(C)C(=O)O [ISOBUTYRATE] is 4.1-fold higher in LC retention time: 0.886 min for the first, 3.67 min for the second.

O=c1c(O)c(-c2ccc(O)cc2)oc2cc(O)cc(O)c12 [KAEMPFEROL] and O=C(O)C1OC(Oc2cc3oc(-c4ccccc4)cc(=O)c3c(O)c2O)C(O)C(O)C1O (stereo unspecified) [BAICALIN] are within 1.5-fold of each other in LC retention time: 6.13 min for the first, 5.17 min for the second.

First: O=C(O)C(O)CCO (stereo unspecified) [2,4-DIHYDROXYBUTANOIC ACID]
Second: CCCCCCCCCCCC(O)CC(=O)O (stereo unspecified) [3-HYDROXYTETRADECANOIC ACID]
The LC retention time of the first is 7.6-fold lower: 1.07 min for the first, 8.11 min for the second.

CC(=O)OC1CC2CCC1(C)C2(C)C (single isomer, unassigned; (-)) [(-)-BORNYL ACETATE] and CC(=O)OC1CC(=O)OC(C)(C)C2CC(=O)C3(C)C(CCC4(C)C(c5ccoc5)OC(=O)C5OC543)C12C (stereo unspecified) [NOMILIN] are within 1.5-fold of each other in LC retention time: 7.47 min for the first, 7.05 min for the second.

C=C(C)C1Cc2c(ccc3c2OC2COc4cc(OC)c(OC)cc4C2C3=O)O1 (stereo unspecified) [ROTENONE] and CC(CC(=O)CC(C)C1CC(O)C2(C)C3=C(C(=O)CC12C)C1(C)CCC(=O)C(C)(C)C1CC3O)C(=O)O (stereo unspecified) [GANODERIC ACID A] are within 1.5-fold of each other in LC retention time: 7.55 min for the first, 6.82 min for the second.

CC(=O)NCCc1cnc[nH]1 [N-ACETYLHISTAMINE] and Cn1cnc(=N)c2[nH]cnc21 [3-METHYLADENINE] are within 1.5-fold of each other in LC retention time: 0.998 min for the first, 0.904 min for the second.

Compared with O=C1CCCC(C(=O)O)N1 (stereo unspecified) [6-OXOPIPERIDINE-2-CARBOXYLIC ACID], O=C(O)CCCCCCCCCCCCCCCO [16-HYDROXY HEXADECANOIC ACID] is 5.8-fold higher in LC retention time: 1.34 min for the first, 7.82 min for the second.

Going from CCCCCCCCCCCCCCCCCC(=O)NCCO [STEAROYLETHANOLAMIDE] to Oc1cccc(O)c1O [PYROGALLOL], the LC retention time falls from 9.74 min to 2.89 min (3.4-fold).
